The test system of one assay is HTT mRNA. In words: Splicing RT-qPCR assay, HTT canonical (CJ) and alternative (AJ) junction mRNA. The class given is cell-based, human. Conditions: Homo sapiens, A673 or K562 cells, 24 hours compound treatment; for IC50: 24 h, read-out: HTT CJ (IC50, decrease in canonical junction mRNA); for AC50: read-out: HTT AJ (AC50, increase in alternative junction mRNA). The procedure, abridged: (§1)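 Canonical (CJ) and alternative-exon (AJ) junction mRNAs quantified by one-step RT-qPCR in cell lysates, normalized to housekeeping PPIA for A673 and GAPDH or GUSB for K562. Cells were exposed 24 h at 37 °C to 11-point 3-fold compound series from 10 uM final, with DMSO at or below 0.25%.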
A general note: Real-time PCR tracks product formation cycle by cycle.

Another assay concerns MYB mRNA. The assay can be described thus: Splicing RT-qPCR assay, MYB canonical (CJ) and alternative (AJ) junction mRNA. The class given is cell-based, human. Conditions: Homo sapiens, 24 h, A673 or K562 cells, 24 hours compound treatment, RT-qPCR; for AC50: read-out: MYB AJ (AC50, increase in alternative junction mRNA); for IC50: read-out: MYB CJ (IC50, decrease in canonical junction mRNA). In a few lines: as §1

The IC50 is the point on the concentration scale where inhibition reaches its midpoint. Broadly, the AC50 is the concentration at which the activity in the assay is half-maximal. Consider `Cc1cn2cc(NC(=O)c3ccc(N4CC[C@@H](NC5COC5)C4)c4cn(C)nc34)cc(F)c2n1` [Compound 531, N-{8-fluoro-2-methylimidazo[1,2-a]pyridin-6-yl}-2-methyl-4-[(3R)-3-(oxetan-3-ylamino)pyrrolidin-1-yl]indazole-7-carboxamide], for which the values for the IC50 with HTT mRNA and in the assay with MYB mRNA were 1000 to 10000 nM and 100 to 1000 nM, respectively. The AC50 with HTT mRNA and in the assay on MYB mRNA was 1000 to 10000 nM each time.

For `Cc1cn2cc(NC(=O)c3ccc(N4CC[C@@H](NC5CCC5)C4)c4cn(C)nc34)cc(F)c2n1` [Compound 533, (R)-4-(3-(cyclobutylamino)pyrrolidin-1-yl)-N-(8-fluoro-2-methylimidazo[1,2-a]pyridin-6-yl)-2-methyl-2H-indazole-7-carboxamide], the IC50 with HTT mRNA is 1000 to 10000 nM; with MYB mRNA, under 100 nM. Further, the AC50 in the assay with HTT mRNA is 1000 to 10000 nM; with MYB mRNA, under 100 nM.

Consider `CCn1cc2c(N3CCN[C@@H](C(C)C)C3)ccc(C(=O)Nc3cc(F)c4nc(C)cn4c3)c2n1` [Compound 535, 2-ethyl-N-{8-fluoro-2-methylimidazo[1,2-a]pyridin-6-yl}-4-[(3 S)-3-isopropylpiperazin-1-yl]indazole-7-carboxamide], for which the IC50 is over 10000 nM with HTT mRNA and 100 to 1000 nM with MYB mRNA. Also, the results for the AC50 with HTT mRNA and in the assay on MYB mRNA were over 10000 nM and 100 to 1000 nM, respectively.

As to `CCn1cc2c(N3CCN4CCOC[C@H]4C3)ccc(C(=O)Nc3cc(F)c4nc(C)cn4c3)c2n1` [Compound 537, 4-[(9aR)-hexahydro-1H-pyrazino[2,1-c][1,4]oxazin-8-yl]-2-ethyl-N-{8-fluoro-2-methylimidazo[1,2-a]pyridin-6-yl}indazole-7-carboxamide], in the assay with HTT mRNA, the IC50 is over 10000 nM and the AC50 is over 10000 nM. For the same compound, in the assay on MYB mRNA, the AC50 was 1000 to 10000 nM and the IC50 is 1000 to 10000 nM.

Consider `CCn1cc2c(N3CCN4CCOC[C@@H]4C3)ccc(C(=O)Nc3cc(F)c4nc(C)cn4c3)c2n1` [Compound 538, 4-[(9aS)-hexahydro-1H-pyrazino[2,1-c][1,4]oxazin-8-yl]-2-ethyl-N-{8-fluoro-2-methylimidazo[1,2-a]pyridin-6-yl} indazole-7-carboxamide], for which, in the assay on HTT mRNA, the IC50 was in the range of 1000 to 10000 nM and the concentration at half-maximal activity (AC50) was in the range of 1000 to 10000 nM. Moreover, in the assay with MYB mRNA, the AC50 lay in the range of 1000 to 10000 nM and the IC50 is 1000 to 10000 nM.

Regarding `CCn1cc2c(N3CCC(C)(N)C3)ccc(C(=O)Nc3cc(F)c4nc(C)cn4c3)c2n1` (centres unmarked) [Compound 539, 4-(3-amino-3-methylpyrrolidin-1-yl)-2-ethyl-N-{8-fluoro-2-methylimidazo[1,2-a]pyridin-6-yl}indazole-7-carboxamide], in the assay with HTT mRNA, the IC50 was over 10000 nM and the AC50 is over 10000 nM. In the assay on MYB mRNA, the AC50 was 1000 to 10000 nM and the IC50 lay in the range of 1000 to 10000 nM.

Regarding `CCn1cc2c(N3CCN[C@@H](C4CC4)C3)ccc(C(=O)Nc3cc(F)c4nc(C)cn4c3)c2n1` [Compound 541, 4-[(3S)-3-cyclopropylpiperazin-1-yl]-2-ethyl-N-{8-fluoro-2-methylimidazo[1,2-a]pyridin-6-yl}indazole-7-carboxamide], in the assay with HTT mRNA, the IC50 is over 10000 nM and the AC50 is over 10000 nM. In the assay on MYB mRNA, the AC50 fell in the range of 100 to 1000 nM and the IC50 lay in the range of 100 to 1000 nM.

Consider `CCn1cc2c(N3CCN[C@H](C4CC4)C3)ccc(C(=O)Nc3cc(F)c4nc(C)cn4c3)c2n1` [Compound 542, 4-[(3R)-3-cyclopropylpiperazin-1-yl]-2-ethyl-N-{8-fluoro-2-methylimidazo[1,2-a]pyridin-6-yl}indazole-7-carboxamide], for which, in the assay with HTT mRNA, the half-inhibitory concentration (IC50) was 1000 to 10000 nM and the AC50 lay in the range of 1000 to 10000 nM. Moreover, in the assay with MYB mRNA, the AC50 was in the range of 100 to 1000 nM and the IC50 lay in the range of 100 to 1000 nM.

As to `CCn1cc2c(N3CCC(NC4CCC4)CC3)ccc(C(=O)Nc3cc(F)c4nc(C)cn4c3)c2n1` [Compound 543, 4-[4-(cyclobutylamino)piperidin-1-yl]-2-ethyl-N-{8-fluoro-2-methylimidazo[1,2-a]pyridin-6-yl}indazole-7-carboxamide], in the assay on HTT mRNA, the IC50 was in the range of 1000 to 10000 nM and the AC50 is 1000 to 10000 nM. In the assay on MYB mRNA, the AC50 is under 100 nM and the IC50 was under 100 nM.

Regarding `CCn1cc2c(N3CCC(C)(NC)C3)ccc(C(=O)Nc3cc(F)c4nc(C)cn4c3)c2n1` (centres unmarked) [Compound 544, 2-ethyl-N-{8-fluoro-2-methylimidazo[1,2-a]pyridin-6-yl}-4-[3-methyl-3-(methylamino)pyrrolidin-1-yl]indazole-7-carboxamide], the IC50 in the assay with HTT mRNA is over 10000 nM; with MYB mRNA, 1000 to 10000 nM. Moreover, the AC50 was over 10000 nM with HTT mRNA and 1000 to 10000 nM in the assay on MYB mRNA.

For the compound `CCn1cc2c(N(C)C3CCNCC3)ccc(C(=O)Nc3cc(F)c4nc(C)cn4c3)c2n1` [Compound 545, 2-ethyl-N-(8-fluoro-2-methylimidazo[1,2-a]pyridin-6-yl)-4-(methyl(piperidin-4-yl)amino)-2H-indazole-7-carboxamide], in the assay with HTT mRNA, the IC50 is 1000 to 10000 nM and the AC50 was over 10000 nM. In the assay on MYB mRNA, the AC50 lay within 100 to 1000 nM and the IC50 was in the range of 100 to 1000 nM.

Take `CCn1cc2c(N3CC[C@@](C)(NC)C3)ccc(C(=O)Nc3cc(F)c4nc(C)cn4c3)c2n1` [Compound 547, 2-ethyl-N-{8-fluoro-2-methylimidazo[1,2-a]pyridin-6-yl}-4-[(3R)-3-methyl-3-(methylamino)pyrrolidin-1-yl]indazole-7-carboxamide]: in the assay with HTT mRNA, the IC50 is over 10000 nM and the concentration at half-maximal activity (AC50) is over 10000 nM. Moreover, in the assay on MYB mRNA, the AC50 was over 10000 nM and the IC50 was over 10000 nM.

On to `CCn1cc2c(N3CC[C@](C)(NC)C3)ccc(C(=O)Nc3cc(F)c4nc(C)cn4c3)c2n1` [Compound 548, 2-ethyl-N-{8-fluoro-2-methylimidazo [1,2-a]pyridin-6-yl}-4-[(3S)-3-methyl-3-(methylamino)pyrrolidin-1-yl]indazole-7-carboxamide], for which, in the assay on HTT mRNA, the half-inhibitory concentration (IC50) is over 10000 nM and the AC50 is over 10000 nM. Further, in the assay on MYB mRNA, the AC50 is over 10000 nM and the IC50 was over 10000 nM.

In the case of `CCn1cc2c(N(C)C3C[C@H]4CC[C@@H](C3)N4)ccc(C(=O)Nc3cc(F)c4nc(C)cn4c3)c2n1` (stereo partly drawn) [Compound 550, 4-[(1R,5S)-8-azabicyclo[3.2.1]octan-3-yl(methyl)amino]-2-ethyl-N-{8-fluoro-2-methylimidazo[1,2-a]pyridin-6-yl}indazole-7-carboxamide], the IC50 in the assay on HTT mRNA was over 10000 nM; in the assay on MYB mRNA it was 1000 to 10000 nM. Besides, the AC50 was over 10000 nM with HTT mRNA and 1000 to 10000 nM in the assay on MYB mRNA.

As for `Cc1cn2cc(NC(=O)c3ccc(N4CC[C@@H](N5CCOCC5)C4)c4cn(C)nc34)cc(F)c2n1` [Compound 552, N-{8-fluoro-2-methylimidazo[1,2-a]pyridin-6-yl}-2-methyl-4-[(3R)-3-(morpholin-4-yl)pyrrolidin-1-yl]indazole-7-carboxamide], the IC50 in the assay with HTT mRNA and in the assay on MYB mRNA was 100 to 1000 nM throughout. Further, the AC50 with HTT mRNA and with MYB mRNA was 100 to 1000 nM throughout.

Turning to `C=CCN[C@@H]1CCN(c2ccc(C(=O)Nc3cc(F)c4nc(C)cn4c3)c3nn(C)cc23)C1` [Compound 554, N-{8-fluoro-2-methylimidazo[1,2-a]pyridin-6-yl}-2-methyl-4-[(3R)-3-(prop-2-en-1-ylamino)pyrrolidin-1-yl]indazole-7-carboxamide], the IC50 in the assay with HTT mRNA is over 10000 nM; with MYB mRNA it was 100 to 1000 nM. Also, the AC50 with HTT mRNA was over 10000 nM; in the assay on MYB mRNA, under 100 nM.

`CCn1cc2c(N3CCC(NCC4(O)CC4)CC3)ccc(C(=O)Nc3cc(F)c4nc(C)cn4c3)c2n1` [Compound 576, 2-ethyl-N-{8-fluoro-2-methylimidazo[1,2-a]pyridin-6-yl}-4-(4-{[(1-hydroxycyclopropyl)methyl]amino}piperidin-1-yl) indazole-7-carboxamide]: in the assay on HTT mRNA, the IC50 fell in the range of 1000 to 10000 nM and the AC50 was over 10000 nM. Further, in the assay on MYB mRNA, the AC50 fell in the range of 100 to 1000 nM and the IC50 fell in the range of 100 to 1000 nM.

Turning to `CCn1cc2c(N3CCC(NCC(C)(C)O)CC3)ccc(C(=O)Nc3cc(F)c4nc(C)cn4c3)c2n1` [Compound 577, 2-ethyl-N-{8-fluoro-2-methylimidazo[1,2-a]pyridin-6-yl}-4-{4-[(2-hydroxy-2-methylpropyl)amino]piperidin-1-yl}indazole-7-carboxamide], in the assay with HTT mRNA, the IC50 was in the range of 100 to 1000 nM and the AC50 was in the range of 100 to 1000 nM. In the assay on MYB mRNA, the AC50 was in the range of 100 to 1000 nM and the IC50 was in the range of 100 to 1000 nM.

Regarding `Cc1cn2cc(NC(=O)c3ccc(N4CC[C@@H](Nc5ccccc5)C4)c4cn(C)nc34)cc(F)c2n1` [Compound 579, N-{8-fluoro-2-methylimidazo[1,2-a]pyridin-6-yl}-2-methyl-4-[(3R)-3-(phenylamino)pyrrolidin-1-yl] indazole-7-carboxamide], the IC50 in the assay with HTT mRNA and with MYB mRNA was over 10000 nM in each case. Further, the AC50 with HTT mRNA and in the assay on MYB mRNA was over 10000 nM in each case.

In the case of `CCn1cc2c(N3CCC(NC4C5CNCC54)CC3)ccc(C(=O)Nc3cc(F)c4nc(C)cn4c3)c2n1` (centres unmarked) [Compound 580, 4-(4-{3-azabicyclo[3.1.0]hexan-6-ylamino}piperidin-1-yl)-2-ethyl-N-{8-fluoro-2-methylimidazo[1,2-a]pyridin-6-yl}indazole-7-carboxamide; bis(trifluoroacetic acid)], in the assay on HTT mRNA, the IC50 is over 10000 nM and the AC50 was over 10000 nM. In the assay with MYB mRNA, the AC50 is 1000 to 10000 nM and the IC50 was 100 to 1000 nM.

These data come from patent publication US20250154169A1, “COMPOUNDS AND METHODS FOR MODULATING SPLICING” (REMIX THERAPEUTICS INC., priority 2021, published 2025).
